Legend:
[1] = test system: NMD (HeLa cell line constitutively expressing the NMD-target mRNA); test: NMD inhibitory effect in HeLa reporter cell line: RLuc mRNA (real-time PCR) and protein (dual luciferase assay); assay type: cell-based; details: 5 μM, 12 hours, FIG. 4; for amount of RLuc mRNA: real-time PCR
Source text: In Example 1, a beta-globin normal gene or the gene including a premature termination codon (PTC) found in genetic diseases was inserted into the downstream of a chemiluminescence gene, Renilla luciferase (RLuc). Normal gene-inserted mRNA was not targeted by NMD, whereas when a gene having PTC was inserted, the mRNA became a NMD target, and as a result, mRNA was quickly broken down and the expression level of RLuc was reduced.
Accordingly, a HeLa cell line constitutively expressing the NMD-target mRNA was prepared, and simultaneously, the cell line was designed to constitutively express a firefly luciferase (FLuc) gene, which was not a target of NMD, and a total of three cell lines NMD20, NMD4, and NMD5 with the same composition were obtained. In order to confirm whether the HeLa cell line prepared above was suitable for measuring NMD efficiency, the following two experiments were performed.
The NMD inhibitory effect of Compounds 1 to 3 was confirmed using the HeLa cell line prepared in Example 1. After treating the cells with Compounds 1 to 3 at 5 μM for 12 hours, respectively, total RNA and protein were purified from the cells, respectively. Then, the amounts of RNA and protein were quantified respectively through real-time PCR and dual luciferase assay methods. The results were illustrated in FIG. 4.

[2] = test system: UPF1; test: Western blotting of UPF1 phosphorylation in treated cells; assay type: cell-based; details: 5 μM, 12 hours, FIG. 5
Procedure: Phosphorylation of UPF1 was known to be one of the most important factors in NMD. In Example 3.1, the effect of the three types of compounds of the present invention on phosphorylation of UPF1 was examined. The cells were treated with each compound at 5 μM for 12 hours, and then total proteins were purified. Then, western blotting was performed using each antibody capable of recognizing Upf1 or Upf1 phosphorylated at a specific site.

[3] = target: T1, binding between UPF1 and UPF2 (Homo sapiens, UniProt Q92900); test: FLAG-UPF1 immunoprecipitation / western blotting for UPF1-UPF2 binding; assay type: cell-based; details: 5 μM, 1 hour; FLAG-UPF1 overexpressed; immunoprecipitation with FLAG antibody; FIG. 6
T1 construct: expressed in transfected cells
T1 sequence (Q92900 1-1129): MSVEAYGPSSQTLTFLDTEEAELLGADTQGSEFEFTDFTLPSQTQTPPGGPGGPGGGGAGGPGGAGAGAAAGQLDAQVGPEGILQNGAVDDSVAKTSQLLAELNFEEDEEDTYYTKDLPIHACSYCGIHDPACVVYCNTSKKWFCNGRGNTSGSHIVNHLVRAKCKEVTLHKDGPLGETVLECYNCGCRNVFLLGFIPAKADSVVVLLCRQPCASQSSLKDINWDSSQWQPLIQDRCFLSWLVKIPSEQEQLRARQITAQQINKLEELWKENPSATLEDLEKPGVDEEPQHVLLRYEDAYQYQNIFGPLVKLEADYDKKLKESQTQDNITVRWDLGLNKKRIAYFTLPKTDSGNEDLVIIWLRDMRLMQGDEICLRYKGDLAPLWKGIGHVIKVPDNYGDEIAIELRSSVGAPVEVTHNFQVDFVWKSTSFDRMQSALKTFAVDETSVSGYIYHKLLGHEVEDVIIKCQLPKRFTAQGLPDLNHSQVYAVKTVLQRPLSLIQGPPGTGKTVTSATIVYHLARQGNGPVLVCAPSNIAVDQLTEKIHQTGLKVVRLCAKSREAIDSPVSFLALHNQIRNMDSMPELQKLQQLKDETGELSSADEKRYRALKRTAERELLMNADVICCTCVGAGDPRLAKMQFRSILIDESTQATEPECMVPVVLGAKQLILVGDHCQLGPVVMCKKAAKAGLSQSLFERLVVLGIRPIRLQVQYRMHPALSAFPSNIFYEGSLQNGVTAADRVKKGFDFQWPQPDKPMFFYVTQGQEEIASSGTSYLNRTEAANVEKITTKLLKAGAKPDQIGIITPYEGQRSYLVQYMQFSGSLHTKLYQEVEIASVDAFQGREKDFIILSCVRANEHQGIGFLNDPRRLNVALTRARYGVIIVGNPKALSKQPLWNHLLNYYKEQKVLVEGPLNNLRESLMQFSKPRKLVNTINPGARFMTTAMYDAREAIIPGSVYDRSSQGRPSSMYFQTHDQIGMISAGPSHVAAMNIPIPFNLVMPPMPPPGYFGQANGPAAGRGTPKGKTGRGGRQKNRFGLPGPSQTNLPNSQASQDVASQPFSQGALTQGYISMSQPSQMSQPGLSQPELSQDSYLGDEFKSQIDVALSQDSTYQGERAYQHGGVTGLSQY
Procedure: In the cell line, DNA expressing FLAG-UPF1 was transiently overexpressed.
After treating the cell line with each compound at 5μM for 1 hour, a cell extract was obtained. Immunoprecipitation was performed on the cell extract obtained using a FLAG antibody.
Proteins before and after immunoprecipitation were analyzed by western blotting.

[4] = test system: NMD steps (Upf1, Upf2, Upf3X tethered to reporter β-6bs mRNA); test: Tethering assay: MS2-Upf1, MS2-Upf2, MS2-Upf3 tethered to 3' UTR of reporter mRNA in HeLa cell line, real-time PCR; assay type: cell-based; details: 5 μM, 6 hours or 12 hours, FIGS. 8 and 9
Procedure: An NMD-based search system capable of artificially reducing the amount of reporter mRNA was constructed, after artificially tethering proteins Upf1, Upf2, and Upf3X acting in each step of NMD to 3′ UTR of reporter mRNA (FIG. 7). Using this method, it was attempted to verify which step of NMD the three types of compounds acted on.
After treating the cell line with each compound at 5 μM for 6 hours or 12 hours, a cell extract was obtained. Thereafter, the relative amount of reporter mRNA was measured through real-time PCR.

[5] = test system: dystrophin protein in cells derived from patients with DMD; test: Dystrophin protein by Western blotting in DMD patient-derived cell line; assay type: cell-based, human; details: 5 μM, 12 hours, FIG. 11

## COc1ncc(-c2ccc3nccc(-c4ccnnc4)c3c2)cc1NS(=O)(=O)c1ccc(F)cc1F [Compound 1, 2,4-Difluoro-N-{2-(methyloxy)-5-[4-(4-pyridazinyl)-6-quinolinyl]-3-pyridinyl}benzenesulfonamide]
[1]; dual luciferase assay
  protein translation of RLuc: increased protein translation of RLuc
[2]
  effect on phosphorylation of UPF1: did not significantly affect phosphorylation of UPF1
[3]
  effect on UPF1-UPF2 binding: significantly inhibited the UPF1-UPF2 binding
[4]
  step of NMD targeted (relative amount of reporter mRNA): targeted a UPF1-UPF2 step
[5]
  amount of dystrophin protein: increased

## Cn1c(=O)n(-c2ccc(C(C)(C)C#N)cc2)c2c3cc(-c4cnc5ccccc5c4)ccc3ncc21 [Compound 2, 2-methyl-2-{4-[3-methyl-2-oxo-8-(quinolin-3-yl)-2,3-dihydro-1H-imidazo[4,5-c]quinolin-1-yl]phenyl}propanenitrile]
[1]
  amount of RLuc mRNA: significantly increased the amount of mRNA
[2]
  effect on phosphorylation of UPF1: significantly inhibited phosphorylation of UPF1
[3]
  effect on UPF1-UPF2 binding: did not significantly affect the UPF1-UPF2 binding
[4]
  step of NMD targeted (relative amount of reporter mRNA): did not target the UPF1-UPF2 and UPF2-UPF3 steps

## COc1cc2ncnc(-n3nc(-c4ccccn4)nc3N)c2cc1OC [Compound 3, 1-(6,7-Dimethoxy-4-quinazolinyl)-3-(2-pyridinyl)-1H-1,2,4-Triazol-5-amine]
[1]
  amount of RLuc mRNA: significantly increased the amount of mRNA
[2]
  effect on phosphorylation of UPF1: did not significantly affect phosphorylation of UPF1
[3]
  effect on UPF1-UPF2 binding: did not significantly affect the UPF1-UPF2 binding
[4]
  step of NMD targeted (relative amount of reporter mRNA): did not target the UPF1-UPF2 and UPF2-UPF3 steps

Reference: US20240139183A1, “COMPOUND FOR SUPPRESSING NONSENSE-MEDIATED MRNA DECAY” (RiboTech Co., Ltd., priority 2021, published 2024)
